Measured values published in ChEMBL document CHEMBL6078624, “Structure-based discovery of a 4,5-Dihydropyrazole-cored PET ligand for imaging of receptor-interacting serine/threonine-protein kinase 1 (RIPK1) in the brain” (Eur J Med Chem, 2024).
pEC50: −log10 of the molar value.

Assay: Inhibition of TSZ-induced necroptosis in human HT-29 cells by CellTiter-Glo luminescent cell viability assay

Compound	pEC50
O=C(c1cccc(F)n1)N1CCC(C(=O)N2N=CCC2c2cc(F)cc(F)c2)CC1 (configuration not stated)	7.00
O=C(c1cccc(F)n1)N1CCC(C(=O)N2N=CCC2c2cccc(F)c2)CC1 (configuration not stated)	7.01
